From patent US10543221B2, “Beta-lactamase inhibitors, formulations, and uses thereof” (priority 2016, dated 2020)

Columns and labels:
[1] = system: K. pneumoniae strain expressing KPC-2; format: cell-based; conditions: single agent; K. pneumoniae ATCC 4683, phenotype KPC-2
Description: (§1) MIC Studies. Compounds were tested for synergy with the carbapenem antibiotic, imipenem, against BL21(DE3) E. coli expressing KPC-2. MIC values were determined with the Mueller-Hinton broth microdilution method. To test for inhibitory activity, compounds were dissolved in DMSO and dilutions were carried out using LB broth. Compounds were test at 100 µM with increasing concentrations of imipenem. […] After inoculation, the plates are incubated at 37 C for 24 hours. The MIC of the compounds were then determined visually. […] For Table 3, 16 μg/mL of compounds were tested for synergy with the carbapenem antibiotic, imipenem, against a K. pneumoniae strain expressing KPC-2.

[2] = biological target: NDM-1 metallo-beta-lactamase (Klebsiella pneumoniae, UniProt C7C422); assay: Steady-state kinetic analysis, nitrocefin hydrolysis, NDM-1; format: biochemical; conditions: second NDM-1 column of Table 1
Chain of NDM-1 metallo-beta-lactamase (C7C422 whole entry, looked up): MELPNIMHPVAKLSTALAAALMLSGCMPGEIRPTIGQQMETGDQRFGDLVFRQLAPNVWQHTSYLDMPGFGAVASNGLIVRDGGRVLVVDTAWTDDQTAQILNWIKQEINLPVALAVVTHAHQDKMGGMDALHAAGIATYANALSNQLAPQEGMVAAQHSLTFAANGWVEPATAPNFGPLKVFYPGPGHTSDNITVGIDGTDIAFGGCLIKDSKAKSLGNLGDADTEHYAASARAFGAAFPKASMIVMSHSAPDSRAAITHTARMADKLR

VIM-2 = VIM-2 (Escherichia coli, UniProt Q5U7L7); assay: Steady-state kinetic analysis, VIM-2; format: biochemical
KPC-2 beta-lactamase = KPC-2 beta-lactamase (Klebsiella pneumoniae, UniProt Q9F663); assay: Steady-state kinetic analysis, nitrocefin hydrolysis, KPC-2; format: biochemical; conditions: nitrocefin substrate
Chain of KPC-2 beta-lactamase (Q9F663 whole entry, looked up): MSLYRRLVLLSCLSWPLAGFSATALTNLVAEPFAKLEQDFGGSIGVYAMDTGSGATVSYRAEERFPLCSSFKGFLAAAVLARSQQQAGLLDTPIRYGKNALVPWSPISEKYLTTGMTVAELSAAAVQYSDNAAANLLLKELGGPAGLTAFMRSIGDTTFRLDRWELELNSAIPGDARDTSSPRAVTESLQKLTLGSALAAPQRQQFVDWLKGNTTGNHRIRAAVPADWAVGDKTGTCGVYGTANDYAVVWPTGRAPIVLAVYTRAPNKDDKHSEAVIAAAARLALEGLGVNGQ
Description: Fractions were analyzed by SDS-PAGE.
(§2) Steady-State Kinetic Analysis. Steady-state kinetic parameters were determined by using a Biotek Cytation Multi-Mode Reader. For KPC-2, each assay was performed in 100 mM Tris-HCl pH 7.0, 0.01% Triton X-100 at 37 C. […] Compounds according to Formulas 5-10 were purchased from commercial sources. The last compound was de novo synthesized.

His-tag SHV-2 = His-tag SHV-2 (Escherichia coli, UniProt P0A9Z7)
Chain of His-tag SHV-2 (P0A9Z7 22-286 limits assumed): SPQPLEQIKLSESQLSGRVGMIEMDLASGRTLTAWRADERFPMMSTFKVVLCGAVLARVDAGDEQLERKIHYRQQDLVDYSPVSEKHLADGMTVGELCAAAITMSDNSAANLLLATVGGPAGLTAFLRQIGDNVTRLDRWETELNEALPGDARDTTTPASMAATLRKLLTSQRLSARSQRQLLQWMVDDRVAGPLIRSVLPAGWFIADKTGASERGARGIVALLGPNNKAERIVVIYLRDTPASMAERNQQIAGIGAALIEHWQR
Description: as §2, with “C. Vmax and Km were determined from initial steady-state velocities from nitrocefin read at a wavelength of 486 nm. The kinetic parameters were obtained using the non-linear portion of the data to the Henri-Michaelis (equation 1) using SigmaPlot 12.5.” for “C.”

[3] = system: BL21(DE3) E. coli expressing KPC-2; assay: MIC study, synergy with imipenem, broth microdilution, E. coli; format: cell-based; conditions: imipenem alone; E. coli BL21(DE3) pET-GST-blaKPC-2; 37 C, 24 hours
Description: as §1

Cc1cc2oc(=O)cc(CP(=O)(O)O)c2cc1C [Compound 73043]
MIC [1]: >32 mg/L

Cc1cc(Br)c2c(CP(=O)(O)O)cc(=O)oc2c1 [Compound 994942]
Ki [2]: 55 µM
Ki (VIM-2): 1.8 µM

O=c1cc(CP(=O)(O)O)c2ccccc2[nH]1 [Compound 994943]
Ki (VIM-2): 9.12 µM

O=c1cc(CP(=O)(O)O)c2c(F)cc(F)cc2o1 [Compound 995015]
Ki (VIM-2): 4.7 µM

O=P(O)(O)Cc1cccc2cccnc12 [Compound 995016]
Ki (VIM-2): 24.3 µM

Cn1c(=O)cc(CP(=O)(O)O)c2ccccc21 [Compound 995018]
Ki (VIM-2): 15.6 µM

O=P(O)(O)Cc1cccc2ccc[n+]([O-])c12 [Compound 995019]
His-Tag KPC-2 Ki (KPC-2 beta-lactamase): precipitation
NDM-1 Ki [2]: precipitation
VIM-2 Ki (VIM-2): precipitation
His-tag SHV-2 Ki (His-tag SHV-2): precipitation

C[C@@H](O)[C@H]1C(=O)N2C(C(=O)O)=C(SCCN=CN)C[C@H]12 [Imipenem, imipenem, reference compound]
MIC [3]: 4 mg/L
MIC [1]: 8 mg/L
